In ChEMBL document CHEMBL4400524, “Optimizing TRPM4 inhibitors in the MHFP6 chemical space” (Eur J Med Chem, 2019):
Calls of active or inactive are those of the source. No cut-off for these calls is given here.

Tests used:
Format in all cases: cell-based
[1] = target: T1, Transient receptor potential cation channel subfamily M member 4 (Homo sapiens, UniProt Q8TD43); assay: Inhibition of Flag-tagged TRPM4 (unknown origin) expressed in HEK293 cells assessed as reduction in intracellular Na+ influx up to 100 uM after 45 mins by ANG2 dye-based fluorescence assay
T1 sequence (Q8TD43 whole entry): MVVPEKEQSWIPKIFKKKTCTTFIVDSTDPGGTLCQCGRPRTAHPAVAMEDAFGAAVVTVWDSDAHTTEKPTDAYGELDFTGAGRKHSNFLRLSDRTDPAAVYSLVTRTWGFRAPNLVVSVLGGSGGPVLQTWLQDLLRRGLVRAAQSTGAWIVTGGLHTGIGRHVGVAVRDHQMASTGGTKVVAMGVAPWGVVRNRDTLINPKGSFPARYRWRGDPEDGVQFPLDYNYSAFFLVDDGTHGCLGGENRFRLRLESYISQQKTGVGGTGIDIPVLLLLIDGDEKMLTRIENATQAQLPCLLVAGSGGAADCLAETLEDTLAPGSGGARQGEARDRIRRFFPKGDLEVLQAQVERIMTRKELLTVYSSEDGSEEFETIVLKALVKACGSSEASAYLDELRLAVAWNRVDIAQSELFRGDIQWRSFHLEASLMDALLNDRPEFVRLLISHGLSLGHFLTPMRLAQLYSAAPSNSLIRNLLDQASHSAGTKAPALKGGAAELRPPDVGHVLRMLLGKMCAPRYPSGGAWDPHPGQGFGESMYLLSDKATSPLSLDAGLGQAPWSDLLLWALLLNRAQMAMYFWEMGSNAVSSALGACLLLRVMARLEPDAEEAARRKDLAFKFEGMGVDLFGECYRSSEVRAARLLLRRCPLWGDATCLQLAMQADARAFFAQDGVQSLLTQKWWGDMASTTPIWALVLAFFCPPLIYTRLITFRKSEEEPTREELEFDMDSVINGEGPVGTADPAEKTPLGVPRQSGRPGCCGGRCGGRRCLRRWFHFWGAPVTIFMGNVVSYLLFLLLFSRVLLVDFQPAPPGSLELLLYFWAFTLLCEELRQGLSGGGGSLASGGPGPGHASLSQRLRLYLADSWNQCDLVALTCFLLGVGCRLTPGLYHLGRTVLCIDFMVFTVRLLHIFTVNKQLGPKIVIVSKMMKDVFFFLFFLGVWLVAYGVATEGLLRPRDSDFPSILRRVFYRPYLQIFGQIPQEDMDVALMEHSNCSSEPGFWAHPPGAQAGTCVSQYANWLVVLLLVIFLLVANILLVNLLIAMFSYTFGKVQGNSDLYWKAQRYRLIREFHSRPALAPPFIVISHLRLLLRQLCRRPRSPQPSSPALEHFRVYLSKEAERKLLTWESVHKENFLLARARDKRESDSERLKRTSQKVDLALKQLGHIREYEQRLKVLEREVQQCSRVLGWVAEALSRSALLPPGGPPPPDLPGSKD

[2] = target: T1, Transient receptor potential cation channel subfamily M member 4; assay: Inhibition of Flag-tagged TRPM4 (unknown origin) expressed in HEK293 cells assessed as reduction in intracellular Na+ influx after 45 mins by ANG2 dye-based fluorescence assay
[3] = target: T1, Transient receptor potential cation channel subfamily M member 4; assay: Inhibition of Flag-tagged TRPM4 (unknown origin) expressed in HEK293 cells assessed as reduction in intracellular Na+ influx at 10 uM after 45 mins by ANG2 dye-based fluorescence assay relative to control

Compound | IC50 [2] | further results
Cc1noc(C)c1-c1ccc(C(=O)O)c(NC(=O)COc2ccccc2Cl)c1 |  | inhibition [1]: inactive
O=C(COc1ccccc1Cl)Nc1cc(-c2ccsc2)ccc1C(=O)O | 5.9 µM | 
O=C(COc1ccccc1Cl)Nc1cc(-c2ncco2)ccc1C(=O)O | 4.9 µM | 
Cc1cc(Cl)ccc1OC(C)C(=O)Nc1cc(Cl)ccc1C(=O)O (centres undefined) |  | IC50 ([2]; hek293): 1.6 µM
O=C(COc1ccccc1Cl)Nc1cc(Cl)c(Cl)cc1C(=O)O |  | inhibition [3]: 30%
N#Cc1ccc(C(=O)O)c(NC(=O)COc2ccccc2Cl)c1 | 3.6 µM | 
O=C(COc1ccccc1Cl)Nc1cc(Cl)ccc1C(=O)NS(=O)(=O)C1CC1 | 2.8 µM | 
O=C(COc1ccccc1Cl)Nc1cc(-c2nccs2)ccc1C(=O)O | 4.7 µM | 
Cc1cccc(NC(=O)COc2ccccc2Cl)c1C(=O)O | 1.3 µM | 
